Assay results from patent publication US20060069132A1, “Azolecarboxamide herbicides” (priority 2004, published 2006).

What was measured:
[1] = system: rice; assay: Test B flooded paddy test; type: in vivo, Oryza sativa; details: 1000 g ai/ha, scale 0 to 100 (0 no effect, 100 complete control)
How it was run: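 Each value is a visual 0–100 response rating taken against controls 13 to 15 days after treatment in the greenhouse. Plants received formulated chemical postemergence at the 1- to 4-leaf stage or, in flooded paddy, at the 2-leaf stage.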

[2] = system: ducksalad; assay: Test B flooded paddy test; type: in vivo, Heteranthera limosa; details: 1000 g ai/ha, scale 0 to 100 (0 no effect, 100 complete control)
How it was run: (§1)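 Treated at 2-leaf (paddy) or 1–4-leaf, 2–18 cm (postemergence); greenhouse 13–15 d; visual score vs control, 0 none to 100 complete control; dash = not tested.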

[3] = system: pigweed; assay: Test B pre-/postemergence herbicide test; type: in vivo, Amaranthus retroflexus
How it was run: (§2)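 Evaluation is visual, comparing treated with control plants on a scale where 0 means no effect and 100 means full control. Treatments were preemergence, or postemergence on seedlings 2–18 cm tall, and held 13–15 days in the greenhouse.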

[4] = system: large crabgrass; assay: Test B pre-/postemergence herbicide test; type: in vivo, Digitaria sanguinalis
How it was run: as §2

[5] = system: cocklebur; assay: Test B pre-/postemergence herbicide test; type: in vivo, Xanthium strumarium
How it was run: (§3)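 Herbicidal effect was judged by eye on a 0–100 scale after plants stood 13 to 15 days in the greenhouse following pre- or postemergence treatment with surfactant-containing formulations.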

[6] = system: wheat; assay: Test B postemergence herbicide test; type: in vivo, Triticum aestivum; parameters: key to Wheat plant response rating: 0 = no effect, 100 = complete control; details: for Wheat plant response rating: postemergence
How it was run: (§4)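 Formulated test chemicals went onto postemergence plants measuring 2 to 18 cm, at one to four leaves. For the paddy assay, species had reached two leaves. Scoring took place 13–15 days later by eye, relative to untreated plants, using 0 for no effect up to 100 for full control.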

[7] = system: lambsquarters; assay: Test B pre-/postemergence herbicide test; type: in vivo, Chenopodium album
How it was run: as §2

[8] = system: corn; assay: Test B pre-/postemergence herbicide test; type: in vivo, Zea mays
How it was run: as §2

[9] = system: morningglory; assay: Test B pre-/postemergence herbicide test; type: in vivo, Ipomoea coccinea
How it was run: as §3

[10] = system: small flower umbrella sedge; assay: Test B flooded paddy test; type: in vivo, Cyperus difformis; details: 1000 g ai/ha, scale 0 to 100 (0 no effect, 100 complete control)
How it was run: as §1

[11] = system: blackgrass; assay: Test B postemergence herbicide test; type: in vivo, Alopecurus myosuroides
How it was run: as §1

[12] = system: velvetleaf; assay: Test B pre-/postemergence herbicide test; type: in vivo, Abutilon theophrasti
How it was run: as §2

[13] = system: Surinam grass; assay: Test B pre-/postemergence herbicide test; type: in vivo, Urochloa decumbens
How it was run: as §2

[14] = system: barnyardgrass; assay: Test B pre-/postemergence herbicide test; type: in vivo, Echinochloa crus-galli
How it was run: as §3

[15] = system: barnyardgrass; assay: Test B flooded paddy test; type: in vivo, Echinochloa crus-galli; details: 1000 g ai/ha, scale 0 to 100 (0 no effect, 100 complete control)
How it was run: as §1

[16] = system: wild oat; assay: Test B postemergence herbicide test; type: in vivo, Avena fatua
How it was run: as §4

[17] = Postemergence, 500 g ai/ha, visual rating after 13 to 15 days, scale 0 (no effect) to 100 (complete control)
[18] = Preemergence, 500 g ai/ha, scale 0 to 100
[19] = preemergence, 125 g ai/ha, 0 to 100 scale, 0 is no effect, 100 is complete control
[20] = Postemergence, 125 g ai/ha, scale 0 (no effect) to 100 (complete control)
[21] = 125 g ai/ha, 0 is no effect, 100 is complete control, preemergence
[22] = 125 g ai/ha, visual rating, scale 0 (no effect) to 100 (complete control), postemergence
[23] = 500 g ai/ha, visual rating, 0 = no effect, 100 = complete control, preemergence
[24] = postemergence, 500 g ai/ha, scale 0 to 100, 0 is no effect, 100 is complete control

**Q.** For `C#CCNC(=O)c1cccc(NC(=O)c2cc(C(C)(C)C)nn2CC)c1` [Compound 47], which “Rice plant response rating” value ([1]; visual rating, 13 to 15 days) is on record?
**A.** 70

**Q.** What about the “Ducksalad plant response rating” value ([2]; visual rating, 13 to 15 days) of the same compound?
**A.** 80

**Q.** What about the “Plant response rating, Pigweed” value [3, 17] of the same compound?
**A.** 100

**Q.** What about the “Pigweed plant response rating” value [3, 18] of the same compound?
**A.** 100

**Q.** And the “Plant response rating, Pigweed” value [3, 19]?
**A.** 100

**Q.** And the “Crabgrass, Large plant response rating” value [4, 20]?
**A.** 10

**Q.** What about the “Plant response rating, Crabgrass, Large” value [4, 17] of the same compound?
**A.** 70

**Q.** What about the “Crabgrass, Large plant response rating” value [4, 18] of the same compound?
**A.** 100

**Q.** What about the “Cocklebur plant response rating” value [5, 20] of the same compound?
**A.** 10

**Q.** What about the “Plant response rating, Cocklebur” value [5, 17] of the same compound?
**A.** 100

**Q.** And the “Cocklebur plant response rating” value [5, 18]?
**A.** 40

**Q.** And the “Plant response rating, Wheat” value [6, 17]?
**A.** 30

**Q.** And the “Lambsquarters plant response rating” value [7, 20]?
**A.** 80

**Q.** And the “Plant response rating, Lambsquarters” value [7, 17]?
**A.** 90

**Q.** What about the “Lambsquarters plant response rating” value [7, 18] of the same compound?
**A.** 100

**Q.** What about the “Plant response rating, Lambsquarters” value [7, 19] of the same compound?
**A.** 100

**Q.** And the “Corn plant response rating” value [8, 20]?
**A.** 10

**Q.** What about the “Plant response rating, Corn” value [8, 17] of the same compound?
**A.** 30

**Q.** What about the “Corn plant response rating” value [8, 18] of the same compound?
**A.** 10

**Q.** What about the “Morningglory plant response rating” value [9, 20] of the same compound?
**A.** 30

**Q.** And the “Plant response rating, Morningglory” value [9, 17]?
**A.** 100

**Q.** And the “Morningglory plant response rating” value [9, 18]?
**A.** 30

**Q.** What about the “Plant response rating, Morningglory” value [9, 19] of the same compound?
**A.** 20

**Q.** What about the “Sedge, Umbrella plant response rating” value ([10]; visual rating, 13 to 15 days) of the same compound?
**A.** 80

**Q.** What about the “Blackgrass plant response rating” value [11, 20] of the same compound?
**A.** 10

**Q.** And the “Plant response rating, Blackgrass” value [11, 17]?
**A.** 10

**Q.** What about the “Plant response rating, Velvetleaf” value [12, 17] of the same compound?
**A.** 70

**Q.** And the “Velvetleaf plant response rating” value [12, 18]?
**A.** 100

**Q.** What about the “Plant response rating, Velvetleaf” value [12, 19] of the same compound?
**A.** 30

**Q.** And the “Plant response rating, Surinam Grass” value [13, 17]?
**A.** 40

**Q.** What about the “Surinam Grass plant response rating” value [13, 18] of the same compound?
**A.** 70

**Q.** And the “Plant response rating, Surinam Grass” value [13, 19]?
**A.** 20

**Q.** What about the “Barnyardgrass plant response rating” value [14, 20] of the same compound?
**A.** 20

**Q.** What about the “Plant response rating, Barnyardgrass” value [14, 17] of the same compound?
**A.** 40

**Q.** What about the “Barnyardgrass plant response rating” value [14, 18] of the same compound?
**A.** 90

**Q.** And the “Barnyardgrass plant response rating” value ([15]; visual rating, 13 to 15 days)?
**A.** 90

**Q.** What about the “Oat, Wild plant response rating” value [16, 20] of the same compound?
**A.** 10

**Q.** And the “Plant response rating, Oat, Wild” value [16, 17]?
**A.** 30

**Q.** With `CCC1=NN(C(C)(C)C)CC1C(=O)Nc1cc(C(=O)N(C)C)ccc1F` (racemic) [Compound 343] as the compound, how does the “Rice plant response rating” value [1] read?
**A.** 80

**Q.** And the “Ducksalad plant response rating” value [2]?
**A.** 90

**Q.** And the “Plant response rating (0 to 100 scale), Pigweed” value [3, 21]?
**A.** 90

**Q.** What about the “Pigweed plant response rating” value [3, 22] of the same compound?
**A.** 40

**Q.** What about the “Plant response rating, Pigweed” value [3, 23] of the same compound?
**A.** 100

**Q.** And the “Pigweed plant response rating” value [3, 24]?
**A.** 90

**Q.** And the “Plant response rating (0 to 100 scale), Crabgrass, Large” value [4, 21]?
**A.** 40

**Q.** What about the “Crabgrass, Large plant response rating” value [4, 22] of the same compound?
**A.** 20

**Q.** And the “Plant response rating, Crabgrass, Large” value [4, 23]?
**A.** 100

**Q.** And the “Crabgrass, Large plant response rating” value [4, 24]?
**A.** 50

**Q.** And the “Cocklebur plant response rating” value [5, 22]?
**A.** 0

**Q.** And the “Plant response rating, Cocklebur” value [5, 23]?
**A.** 90

**Q.** What about the “Cocklebur plant response rating” value [5, 24] of the same compound?
**A.** 20

**Q.** And the “Wheat plant response rating” value ([6]; 125 g ai/ha, visual rating, scale 0 (no effect) to 100 (complete control))?
**A.** 0

**Q.** And the “Wheat plant response rating” value ([6]; 500 g ai/ha, scale 0 to 100, 0 is no effect, 100 is complete control)?
**A.** 0

**Q.** And the “Plant response rating (0 to 100 scale), Lambsquarters” value [7, 21]?
**A.** 90

**Q.** What about the “Lambsquarters plant response rating” value [7, 22] of the same compound?
**A.** 40

**Q.** What about the “Plant response rating, Lambsquarters” value [7, 23] of the same compound?
**A.** 100

**Q.** What about the “Lambsquarters plant response rating” value [7, 24] of the same compound?
**A.** 100

**Q.** What about the “Corn plant response rating” value [8, 22] of the same compound?
**A.** 10

**Q.** And the “Corn plant response rating” value [8, 24]?
**A.** 30

**Q.** And the “Plant response rating (0 to 100 scale), Morningglory” value [9, 21]?
**A.** 50

**Q.** And the “Morningglory plant response rating” value [9, 22]?
**A.** 30

**Q.** What about the “Plant response rating, Morningglory” value [9, 23] of the same compound?
**A.** 100

**Q.** And the “Morningglory plant response rating” value [9, 24]?
**A.** 80

**Q.** And the “Sedge, Umbrella plant response rating” value [10]?
**A.** 90

**Q.** What about the “Blackgrass plant response rating” value [11, 22] of the same compound?
**A.** 0

**Q.** What about the “Blackgrass plant response rating” value [11, 24] of the same compound?
**A.** 10

**Q.** And the “Plant response rating (0 to 100 scale), Velvetleaf” value [12, 21]?
**A.** 100

**Q.** And the “Velvetleaf plant response rating” value [12, 22]?
**A.** 20

**Q.** And the “Velvetleaf plant response rating” value [12, 24]?
**A.** 50

**Q.** What about the “Plant response rating (0 to 100 scale), Surinam Grass” value [13, 21] of the same compound?
**A.** 50

**Q.** What about the “Surinam Grass plant response rating” value [13, 22] of the same compound?
**A.** 10

**Q.** What about the “Plant response rating, Surinam Grass” value [13, 23] of the same compound?
**A.** 100

**Q.** And the “Surinam Grass plant response rating” value [13, 24]?
**A.** 40

**Q.** And the “Plant response rating (0 to 100 scale), Barnyardgrass” value [14, 21]?
**A.** 70

**Q.** And the “Barnyardgrass plant response rating” value [14, 22]?
**A.** 10

**Q.** And the “Plant response rating, Barnyardgrass” value [14, 23]?
**A.** 100

**Q.** What about the “Barnyardgrass plant response rating” value [14, 24] of the same compound?
**A.** 50

**Q.** And the “Barnyardgrass plant response rating” value [15]?
**A.** 90

**Q.** And the “Oat, Wild plant response rating” value [16, 22]?
**A.** 10

**Q.** What about the “Oat, Wild plant response rating” value [16, 24] of the same compound?
**A.** 10
